This note sets out measurements from US20230192700A1, “PYRAZOLOPYRAZINES ACTING ON CANCERS VIA INHIBITION OF CDK12” (Bayer Aktiengesellschaft, priority 2020, published 2023).

Common to all, as to assay type: cell-based
One assay concerns the target T1, CDK12 (Homo sapiens, UniProt Q9NYV4).
T1 construct: endogenous in cells; host or cells: CAL-120 human breast cancer cells (DSMZ ACC 459)
Description: CDK12 nuclear protein level: immunofluorescence/high content analysis in CAL-120 cells. To be noted: for DC50: CAL-120 cells, 24 h, nuclear CDK12 staining intensity, median, read-out: CDK12 degradation IF DC50 - [mol/l] (median); for (IC50 CDK12 high ATP) to (Degradation DC50 CDK12) ratio: ratio of IC50 CDK12 hATP (2 mM ATP) to DC50 CDK12 (IF, CAL-120). The procedure, abridged: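 Cells were exposed to compounds in dose-response for 24 h at 37 °C, then PFA-fixed, immunostained for CDK12 and counterstained with Hoechst before confocal imaging. Nuclear CDK12 intensity was normalized to DMSO and control. DC50 is the concentration giving 50% reduction of nuclear staining.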

The next assay deals with T2, CYCLIN K (Homo sapiens, UniProt O75909).
T2 construct: endogenous in cells; host or cells: CAL-120 human breast cancer cells (DSMZ ACC 459)
Description: CYCLIN K nuclear protein level: immunofluorescence/high content analysis in CAL-120 cells. The note with it: 24 h, nuclear CCNK staining intensity, median, read-out: CYCLIN K degradation IF, DC50- [mol/l] (median). Here is the method: 7. CYCLIN K Nuclear Protein Level: Immunofluorescence/High Content Analysis
In the context of the present invention, the term “DC50 Cyclin K” refers to the DC50 values obtained according to the assay described in this section (7) herein below, i.e. the DC50 values for the degradation of Cyclin K.
CAL-120 human breast cancer cells (DSMZ ACC 459) are seeded in 1536-well microtiter plates (800 cells per well) containing 50 nanoL of compounds in Dose-Response. Control wells received DMSO or Reference Example 1. Plates are then incubated for 24 h at 37° C. in an humidified incubator and fixed with 4% PFA for 10 min. Then immunofluorescence (IF) against CYCLIN K (ThermoFisher Scientific CCNK Antibody # PA5-85020, rabbit, 1:200 dilution) is performed using standard IF protocols. Cells are then stained with Hoechst 33342 (Life Technologies, H-1399, 0.1 microg/mL) and imaged on an automated confocal microscopy system (e.g. Perkin Elmer Opera Phenix). Nuclear and cytoplasmic intensity as well as the nuclear/cytoplasmic intensity ratio is determined by automated image analysis using custom generated scripts (MetaXpress). Data is then transferred to Genedata Screener software, normalized to DMSO and control and DC50 values (degrading concentration to achieve 50% reduction of nuclear CCNK staining intensity relative to controls) are reported.

Assay [1] relates to MDA-MB-231 human breast cancer cells. Briefly: Proliferation assay MDA-MB-231 (crystal violet). The note with it: Homo sapiens, MDA-MB-231, 96 h, MDA-MB-231 cells, 4 days, median, read-out: Prolif-MDA MB231 IC50 - [mol/l] (median). Here is the method:
(§1) 4. Proliferation assay: MDA-MB-231, CAL-120
(§2) Human tumour cells were originally obtained from the American Type Culture Collection (ATCC), or from the Deutsche Sammlung von Mikroorganismen and Zellkulturen (DSMZ, German Collection of Microorganisms and Cell Cultures). Cultivated tumour cells (CAL-120, human breast adenocarcinoma cells, DSMZ ACC-459; MDA-M B-231, human breast cancer cells, ATCC HTB-26) were plated at a density of 4,000 cells/well in a 96-well multititer plate in 200 microL of their respective growth medium supplemented 10% fetal calf serum. After 24 hours, the cells of one plate (zero-point plate) were stained with crystal violet (see below), while the medium of the other plates was supplemented with the test substances in various concentrations (0 micromol/L, as well as in the range of 0.01-10 micromol/L; the final concentration of the solvent dimethyl sulfoxide was adjusted to 0.1%) using a Tecan HP D300 Digital Dispenser. The cells were incubated for 4 days in the presence of test substances. Cell proliferation was determined by staining the cells with crystal violet: the cells were fixed by adding 20 microL/measuring point of an 11% glutaric aldehyde solution for 15 minutes at room temperature. After three washing cycles of the fixed cells with water, the plates were dried at room temperature. The cells were stained by adding 100 microL/measuring point of a 0.1% crystal violet solution (pH 3.0). After three washing cycles of the stained cells with water, the plates were dried at room temperature. The dye was dissolved by adding 100 microL/measuring point of a 10% acetic acid solution. The extinction was determined by photometry at a wavelength of 595 nm. The change of cell number, in percent, was calculated by normalization of the measured values to the extinction values of the zero-point plate(=0%) and the extinction of the untreated (0 μM) cells(=100%). The IC50 values (inhibitory concentration at 50% of maximal effect) were determined by means of a 4 parameter fit.

Assay [2] relates to CAL-120 human breast adenocarcinoma cells. Briefly: Proliferation assay CAL-120 (crystal violet). To be noted: Homo sapiens, CAL-120, 96 h, CAL-120 cells, 4 days, median, read-out: Prolif-CAL-120— IC50 - [mol/l] (median). The method, then: as §1, §2

Each structure is given as a SMILES string.

T2 sequence (O75909 whole entry): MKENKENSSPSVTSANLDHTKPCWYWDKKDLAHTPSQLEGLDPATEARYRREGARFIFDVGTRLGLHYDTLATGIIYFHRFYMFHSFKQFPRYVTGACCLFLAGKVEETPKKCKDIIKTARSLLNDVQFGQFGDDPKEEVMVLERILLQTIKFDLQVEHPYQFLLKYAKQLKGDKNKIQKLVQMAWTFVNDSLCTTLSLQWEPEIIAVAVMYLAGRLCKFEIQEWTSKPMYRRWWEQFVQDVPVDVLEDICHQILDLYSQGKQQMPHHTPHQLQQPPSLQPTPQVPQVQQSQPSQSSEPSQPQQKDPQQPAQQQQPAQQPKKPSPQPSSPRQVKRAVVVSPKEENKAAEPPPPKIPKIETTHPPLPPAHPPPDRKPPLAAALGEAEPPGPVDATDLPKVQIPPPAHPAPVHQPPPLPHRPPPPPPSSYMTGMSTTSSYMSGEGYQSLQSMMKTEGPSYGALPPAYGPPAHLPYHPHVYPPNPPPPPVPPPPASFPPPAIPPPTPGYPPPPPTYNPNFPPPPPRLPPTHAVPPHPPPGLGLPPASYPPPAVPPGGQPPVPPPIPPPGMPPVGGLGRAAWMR
T2 sequence (Q9NYV4 whole entry partner): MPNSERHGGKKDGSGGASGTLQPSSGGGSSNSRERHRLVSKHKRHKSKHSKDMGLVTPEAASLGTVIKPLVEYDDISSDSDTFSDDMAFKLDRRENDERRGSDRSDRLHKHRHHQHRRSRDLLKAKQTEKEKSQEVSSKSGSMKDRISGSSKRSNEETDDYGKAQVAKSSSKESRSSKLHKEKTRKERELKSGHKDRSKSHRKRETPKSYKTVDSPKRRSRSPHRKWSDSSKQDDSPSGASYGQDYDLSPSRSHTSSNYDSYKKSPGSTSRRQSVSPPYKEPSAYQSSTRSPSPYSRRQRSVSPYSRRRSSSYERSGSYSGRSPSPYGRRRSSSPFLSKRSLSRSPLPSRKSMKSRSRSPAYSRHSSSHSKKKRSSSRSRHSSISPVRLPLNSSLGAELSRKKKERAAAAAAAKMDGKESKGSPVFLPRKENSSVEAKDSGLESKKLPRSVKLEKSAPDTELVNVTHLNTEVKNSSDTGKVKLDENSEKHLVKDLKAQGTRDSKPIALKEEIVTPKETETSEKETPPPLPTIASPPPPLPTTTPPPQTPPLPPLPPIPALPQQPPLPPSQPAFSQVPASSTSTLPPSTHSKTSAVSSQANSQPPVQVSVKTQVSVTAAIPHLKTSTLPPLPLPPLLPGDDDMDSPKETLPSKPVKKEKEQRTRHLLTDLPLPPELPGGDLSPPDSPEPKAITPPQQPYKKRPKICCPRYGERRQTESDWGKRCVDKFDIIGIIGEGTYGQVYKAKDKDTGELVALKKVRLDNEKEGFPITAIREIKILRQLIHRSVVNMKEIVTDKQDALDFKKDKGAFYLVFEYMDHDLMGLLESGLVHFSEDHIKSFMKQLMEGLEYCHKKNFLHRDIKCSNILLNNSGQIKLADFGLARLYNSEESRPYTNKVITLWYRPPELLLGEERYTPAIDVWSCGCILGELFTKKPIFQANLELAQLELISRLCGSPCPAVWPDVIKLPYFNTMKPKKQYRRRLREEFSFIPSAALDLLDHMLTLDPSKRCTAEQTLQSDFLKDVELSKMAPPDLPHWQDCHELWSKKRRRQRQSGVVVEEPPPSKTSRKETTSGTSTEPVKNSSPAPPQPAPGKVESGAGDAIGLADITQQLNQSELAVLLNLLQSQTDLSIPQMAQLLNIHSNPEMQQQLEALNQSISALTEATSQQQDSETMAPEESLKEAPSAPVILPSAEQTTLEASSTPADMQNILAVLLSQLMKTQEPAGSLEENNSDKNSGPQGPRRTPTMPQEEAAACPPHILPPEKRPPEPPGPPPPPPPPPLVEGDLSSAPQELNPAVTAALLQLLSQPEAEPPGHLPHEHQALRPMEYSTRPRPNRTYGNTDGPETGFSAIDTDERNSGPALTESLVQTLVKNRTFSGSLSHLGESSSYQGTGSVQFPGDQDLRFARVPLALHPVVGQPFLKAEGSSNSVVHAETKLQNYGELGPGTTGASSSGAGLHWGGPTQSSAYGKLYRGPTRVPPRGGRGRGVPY
T1 sequence (Q9NYV4 whole entry): as the sequence (Q9NYV4 whole entry partner) above
T1 sequence (O75909 whole entry partner): as the sequence (O75909 whole entry) above

In the case of `O[C@H]1CC[C@@H](n2nc(NCc3nc4ccccc4[nH]3)c3ncc(C4CC4)nc32)CC1` [Example 51, cis-4-(3-{[(1H-benzimidazol-2-yl)methyl]amino}-6-cyclopropyl-1H-pyrazolo[3,4-b]pyrazin-1-yl)cyclohexan-1-ol], the DC50 is 10.7 nM at CDK12 and 4.46 nM on CYCLIN K.

Consider `O[C@H]1C[C@@H](n2nc(NCc3nc4ccccc4[nH]3)c3ncc(C4CC4)nc32)C1` [Example 40, cis-3-(3-{[(1H-benzimidazol-2-yl)methyl]amino}-6-cyclopropyl-1H-pyrazolo[3,4-b]pyrazin-1-yl)cyclobutan-1-ol], for which the IC50 in assay [1] was 83.9 nM; in assay [2] it was 34.6 nM. Also, the DC50 was 2.55 nM on CDK12 and 5.35 nM on CYCLIN K. Also, the “(IC50 CDK12 high ATP) to (Degradation DC50 CDK12) ratio” value at CDK12 is greater than 7840.

As to `O[C@H]1C[C@@H](Cn2nc(NCc3nc4ccccc4[nH]3)c3ncc(C4CC4)nc32)C1` [Example 71, cis-3-[(3-{[(1H-benzimidazol-2-yl)methyl]amino}-6-cyclopropyl-1H-pyrazolo[3,4-b]pyrazin-1-yl)methyl]cyclobutan-1-ol], the IC50 in assay [1] worked out at 70.8 nM; in assay [2] it was 52.4 nM. Besides, the DC50 on CDK12 is 27.7 nM; at CYCLIN K, 8.83 nM.

As to `c1ccc2[nH]c(CNc3nn(C4CCNCC4)c4nc(C5CC5)cnc34)nc2c1` [Example 12, N-[(1H-benzimidazol-2-yl)methyl]-6-cyclopropyl-1-(piperidin-4-yl)-1H-pyrazolo[3,4-b]pyrazin-3-amine], the IC50 in assay [1] stood at 38.3 nM; in assay [2], 6.49 nM. For the same compound, the DC50 on CDK12 was found to be 8.53 nM; on CYCLIN K, 2.16 nM. For the same compound, the “(IC50 CDK12 high ATP) to (Degradation DC50 CDK12) ratio” value on CDK12 is given as greater than 2344.

As for `O[C@H]1CC[C@H](n2nc(NCc3nc4cc(F)ccc4[nH]3)c3ncc(C4CC4)nc32)CC1` [Example 56, trans-4-(6-cyclopropyl-3-{[(5-fluoro-1H-benzimidazol-2-yl)methyl]amino}-1H-pyrazolo[3,4-b]pyrazin-1-yl)cyclohexan-1-ol], the values for the DC50 on CDK12 and on CYCLIN K were 7.11 nM and 1.28 nM, respectively.

On to `c1ccc2[nH]c(CNc3nn(C4CCCC4)c4nc(C5CC5)cnc34)nc2c1` [Example 39, N-[(1H-benzimidazol-2-yl)methyl]-1-cyclopentyl-6-cyclopropyl-1H-pyrazolo[3,4-b]pyrazin-3-amine], for which the figures for the IC50 in assay [1] and in assay [2] were 315 nM and 88.8 nM, respectively. Moreover, the DC50 at CDK12 amounted to 38.2 nM; on CYCLIN K, 38.7 nM. In addition, on CDK12, the “(IC50 CDK12 high ATP) to (Degradation DC50 CDK12) ratio” value is listed as greater than 534.

As to `c1ccc2[nH]c(CNc3nn(C4CCOC4)c4nc(C5CC5)cnc34)nc2c1` (racemic) [Example 10, (±)-N-[(1H-benzimidazol-2-yl)methyl]-6-cyclopropyl-1-[oxolan-3-yl]-1H-pyrazolo[3,4-b]pyrazin-3-amine], the IC50 in assay [1] is 151 nM; in assay [2], 65.7 nM. Also, the DC50 came out at 40.8 nM at CDK12 and 159 nM on CYCLIN K. Besides, the “(IC50 CDK12 high ATP) to (Degradation DC50 CDK12) ratio” value on CDK12 is reported as greater than 4901.

With `CN1CCC(n2nc(NCc3nc4c(C(F)(F)F)cccc4[nH]3)c3ncc(C4CC4)nc32)CC1` [Example 7, 6-cyclopropyl-1-(1-methylpiperidin-4-yl)-N-{[4-(trifluoromethyl)-1H-benzimidazol-2-yl]methyl}-1H-pyrazolo[3,4-b]pyrazin-3-amine], the IC50 in assay [1] is 39.1 nM; in assay [2], 10.5 nM. Further, the DC50 came out at 14.4 nM at CDK12 and 2.62 nM on CYCLIN K.

Regarding `c1ccc2[nH]c(CNc3nn(C4C[C@H]5CC[C@@H](C4)O5)c4nc(C5CC5)cnc34)nc2c1` (stereo partly drawn) [Example 45, exo/endo-N-[(1H-benzimidazol-2-yl)methyl]-6-cyclopropyl-1-(8-oxabicyclo[3.2.1]octan-3-yl)-1H-pyrazolo[3,4-b]pyrazin-3-amine], the IC50 in assay [1] came to 16.8 nM; in assay [2], 9.86 nM. The DC50 at CDK12 was 8.11 nM; at CYCLIN K, 2.29 nM.

As to `OC1(Cn2nc(NCc3nc4ccccc4[nH]3)c3ncc(C4CC4)nc32)CCC1` [Example 72, 1-[(3-{[(1H-benzimidazol-2-yl)methyl]amino}-6-cyclopropyl-1H-pyrazolo[3,4-b]pyrazin-1-yl)methyl]cyclobutan-1-ol], the IC50 in assay [1] amounted to 109 nM; in assay [2], 60.6 nM. Moreover, the DC50 at CDK12 is 18.7 nM; at CYCLIN K, 23.4 nM. Moreover, the “(IC50 CDK12 high ATP) to (Degradation DC50 CDK12) ratio” value at CDK12 is given as greater than 536.

Turning to `CN1CCC(n2nc(NCc3nc4c(F)cccc4[nH]3)c3ncc(C4CC4)nc32)CC1` [Example 3, 6-cyclopropyl-N-[(4-fluoro-1H-benzimidazol-2-yl)methyl]-1-(1-methylpiperidin-4-yl)-1H-pyrazolo[3,4-b]pyrazin-3-amine], the IC50 turned out to be 3.73 nM in assay [1] and 3.3 nM in assay [2]. The DC50 worked out at 1.92 nM on CDK12 and 1.15 nM on CYCLIN K.

Consider `O=CO.c1ccc(-n2nc(NCc3nc4ccccc4[nH]3)c3ncc(C4CC4)nc32)cc1` [Example 13, formic acid—N-[(1H-benzimidazol-2-yl)methyl]-6-cyclopropyl-1-phenyl-1H-pyrazolo[3,4-b]pyrazin-3-amine (1/1)], for which the IC50 in assay [1] was 168 nM. Also, at CDK12, the DC50 is 43.9 nM and the “(IC50 CDK12 high ATP) to (Degradation DC50 CDK12) ratio” value is greater than 455. At CYCLIN K, the DC50 came to 3.11 nM.

For `Cc1ccc2[nH]c(CNc3nn(C4CCN(C)CC4)c4nc(C5CC5)cnc34)nc2c1` [Example 6, 6-cyclopropyl-N-[(5-methyl-1H-benzimidazol-2-yl)methyl]-1-(1-methylpiperidin-4-yl)-1H-pyrazolo[3,4-b]pyrazin-3-amine], on CDK12, the DC50 stood at 13.1 nM and the “(IC50 CDK12 high ATP) to (Degradation DC50 CDK12) ratio” value is greater than 1526. In addition, the DC50 at CYCLIN K was found to be 0.263 nM.

In the case of `c1ccc2[nH]c(CNc3nn(C4COC4)c4nc(C5CC5)cnc34)nc2c1` [Example 55, N-[(1H-benzimidazol-2-yl)methyl]-6-cyclopropyl-1-(oxetan-3-yl)-1H-pyrazolo[3,4-b]pyrazin-3-amine], the values for the DC50 at CDK12 and at CYCLIN K were 46.9 nM and 12.5 nM, respectively.

`CC1(C)CC(n2nc(NCc3nc4ccccc4[nH]3)c3ncc(C4CC4)nc32)CC(C)(C)O1` [Example 52, N-[(1H-benzimidazol-2-yl)methyl]-6-cyclopropyl-1-(2,2,6,6-tetramethyloxan-4-yl)-1H-pyrazolo[3,4-b]pyrazin-3-amine]: the DC50 at CDK12 amounted to 49.3 nM; at CYCLIN K it was 92.6 nM.

Regarding `c1ccc2[nH]c(CNc3nn(C4CC5(COC5)C4)c4nc(C5CC5)cnc34)nc2c1` [Example 54, N-[(1H-benzimidazol-2-yl)methyl]-6-cyclopropyl-1-(2-oxaspiro[3.3]heptan-6-yl)-1H-pyrazolo[3,4-b]pyrazin-3-amine], the DC50 is 13.1 nM at CDK12 and 3.31 nM at CYCLIN K.
